{
  "source": "patent US12377058B1",
  "about": "“Method for inhibiting proliferation of cancer cells” (IMAM MOHAMMAD IBN SAUD ISLAMIC UNIVERSITY, priority 2024, dated 2025)",
  "assay_type_in_all_cases": "cell-based",
  "key": {"[1]": {"system": "MDA-MB-468 cancer stem cells", "assay": "cytotoxic IC50 evaluation against MDA-MB-468 cells", "details": "Homo sapiens, read from FIG. 3", "source_text": "(§1) Referring to FIG. 3, cytotoxic inhibitory concentration of 50 (IC50) evaluation of YS3 against various cancer cells is illustrated."}, "[2]": {"system": "A549 lung cancer stem cells", "assay": "cytotoxic IC50 evaluation against A549 cells", "source_text": "as §1"}, "FaDu cancer stem cells": {"system": "FaDu cancer stem cells", "assay": "cytotoxic IC50 evaluation against FaDu cells", "details": "Homo sapiens, read from FIG. 3", "source_text": "as §1"}, "HELA cancer stem cells": {"system": "HELA cancer stem cells", "assay": "cytotoxic IC50 evaluation against HeLa cells", "source_text": "as §1"}, "PC3 cancer stem cells": {"system": "PC3 cancer stem cells", "assay": "cytotoxic IC50 evaluation against PC3 cells", "source_text": "as §1"}},
  "data": [
    {"compound": "CCCCCOc1ccc(Oc2ccc(C=O)cc2)cc1", "note": "[YS3, 4-(4-(pentoxy)phenoxy)benzaldehyde]", "values": [
      {"measurement": "IC50", "setting": "[1]", "result": "~4.5", "unit": "µg/mL"},
      {"measurement": "performance compared to doxorubicin (DOX)", "setting": "[2]; A549 cell line", "result": "comparable to DOX"},
      {"measurement": "IC50", "setting": "[2]; Homo sapiens, A549 lung cancer stem cells, read from FIG. 3", "result": "~5", "unit": "µg/mL"},
      {"measurement": "IC50", "setting": "FaDu cancer stem cells", "result": "~4", "unit": "µg/mL"},
      {"measurement": "performance compared to doxorubicin (DOX)", "setting": "HELA cancer stem cells; HeLa cell line", "result": "comparable to DOX"},
      {"measurement": "IC50", "setting": "HELA cancer stem cells; Homo sapiens, HELA cancer stem cells, read from FIG. 3", "result": "~5", "unit": "µg/mL"},
      {"measurement": "IC50", "setting": "PC3 cancer stem cells; Homo sapiens, PC-3, PC3 cancer stem cells, read from FIG. 3", "result": "~4", "unit": "µg/mL"},
      {"measurement": "performance compared to doxorubicin (DOX)", "setting": "PC3 cancer stem cells; PC3 cell line", "result": "comparable to DOX"}
    ]}
  ]
}
